Where two headings read alike, the source gives them in different places.
What was measured:
[1] = tested on: ptosis observed one hour after reserpine; assay: Test B: antagonism of reserpine-induced ptosis in mice; assay type: in vivo; conditions: Mus musculus, 1 h, po, antagonism of ptosis one hour after reserpine 2 mg/kg intravenous, read-out: Test B ED 50
Description: Test B: Antagonism with respect to the ptosis observed one hour after an intravenous injection (2 mg/kg) of reserpine given to mice, following the protocol described by C.

[2] = tested on: generalized trembling caused by dl-5-hydroxytryptophane; assay: Test A: potentiation in mice of generalized trembling caused by dl-5-hydroxytryptophane; assay type: in vivo; conditions: Mus musculus, po, read-out: Test A ED 50
Description: Test A: Potentiation in mice of generalized trembling caused by an interperitoneal injection (200 mg/kg) of dl-5-hydroxytryptophane, following the protocol described by C. GOURET and G. RAYNAUD in J. Pharmacol. (Paris), (1974), 5, 231.

[3] = mice, potentiation of trembling by dl-5-hydroxytryptophane 200 mg/kg interperitoneal

| Structure (SMILES) | ED50 [1] | ED50 [2, 3] | ED50 [2] |
| --- | --- | --- | --- |
| CNCC1CN(c2ccc(OCc3ccc(F)cc3)cc2)C(=O)O1 (stereo not shown) [compound 175] | 9.6 mg/kg | 5.8 mg/kg |  |
| CC(=O)OCC1CN(c2ccc(OCc3cccc(Cl)c3)cc2)C(=O)O1 (stereo not shown) [compound 30] | 4.5 mg/kg | 4.2 mg/kg |  |
| CC(C)(C)C(=O)OCC1CN(c2ccc(OCc3cccc(Cl)c3)cc2)C(=O)O1 (stereo not shown) [compound 34] | 7.5 mg/kg | 7 mg/kg |  |
| CCCCOc1ccc(N2CC(COCC)OC2=O)cc1 (stereo not shown) [compound 109] | 1 mg/kg | 10 mg/kg |  |
| CCCCOc1ccc(N2CC(COC(C)=O)OC2=O)cc1 (stereo not shown) [compound 11] | 6.2 mg/kg | 4.2 mg/kg |  |
| Cc1cccc(N2CC(CO)OC2=O)c1 (stereo not shown) [TOLOXATONE, reference compound] | 50 mg/kg | 60 mg/kg |  |
| COCC1CN(c2ccc(OCc3cccc(C#N)c3)cc2)C(=S)O1 (stereo not shown) [compound 116] | 0.95 mg/kg | 1.6 mg/kg |  |
| CN(C)CC1CN(c2ccc(OCc3cccc([N+](=O)[O-])c3)cc2)C(=O)O1 (stereo not shown) [compound 86] | 4.8 mg/kg |  | 4.5 mg/kg |
| CCC(=O)OCC1CN(c2ccc(OCc3cccc(Cl)c3)cc2)C(=O)O1 (stereo not shown) [compound 31] | 3.6 mg/kg | 6.5 mg/kg |  |
| CCCCCCCCC(=O)OCC1CN(c2ccc(OCc3cccc([N+](=O)[O-])c3)cc2)C(=O)O1 (stereo not shown) [compound 42] | 2 mg/kg | 1.25 mg/kg |  |
| CCOCC1CN(c2ccc(OCC3CCCC3)cc2)C(=O)O1 (stereo not shown) [compound 146] | 12.5 mg/kg | 5 mg/kg |  |
| COCC1CN(c2ccc(/C=C\c3cccc([N+](=O)[O-])c3)cc2)C(=O)O1 (stereo not shown) [compound 194] | 5.8 mg/kg | 6.4 mg/kg |  |
| CCOCC1CN(c2ccc(OCc3cccc(Cl)c3)cc2)C(=O)O1 (stereo not shown) [compound 155] | 3 mg/kg | 9.6 mg/kg |  |
| CC(C)C(=O)OCC1CN(c2ccc(OCc3cccc(Cl)c3)cc2)C(=O)O1 (stereo not shown) [compound 32] | 3.6 mg/kg | 4.7 mg/kg |  |
| COCC1CN(c2ccc(OCC(C)=O)cc2)C(=O)O1 (stereo not shown) [compound 151] | 5 mg/kg | 5.2 mg/kg |  |
| CCOc1ccc(N2CC(CO)OC2=S)cc1 (stereo not shown) [compound 87, para ethoxyphenyl-3 hydroxymethyl-5 oxazolidine thione-2] | 44 mg/kg | 29 mg/kg |  |
| C#CCOCC1CN(c2ccc(OCc3cccc([N+](=O)[O-])c3)cc2)C(=O)O1 (stereo not shown) [compound 72] | 1 mg/kg | 0.8 mg/kg |  |
| O=C1OC(COC2CCCCC2)CN1c1ccc(OCC2CCCC2)cc1 (stereo not shown) [compound 51] | 50 mg/kg | 27 mg/kg |  |
| NCC1CN(c2ccc(OCC3CCCC3)cc2)C(=O)O1 (stereo not shown) [compound 76] | 6.2 mg/kg | 2.1 mg/kg |  |
| O=C(OCC1CN(c2ccc(OCc3cccc([N+](=O)[O-])c3)cc2)C(=O)O1)C1CCCCC1 (stereo not shown) [compound 41] | 4.5 mg/kg | 6.2 mg/kg |  |
| CNCC1CN(c2ccc(OCCC(C)C)cc2)C(=O)O1 (stereo not shown) [compound 79] | 2 mg/kg | 6.2 mg/kg |  |
| OCC1CN(c2ccc(OCc3cccc(C(F)(F)F)c3)cc2)C(=S)O1 (stereo not shown) [compound 98] | 12.5 mg/kg | 12.5 mg/kg |  |
| CCCCOc1ccc(N2CC(CO)OC2=S)cc1 (stereo not shown) [compound 89] | 12.5 mg/kg | 12.5 mg/kg |  |
| COCC1CN(c2ccc(OCC3CCOCC3)cc2)C(=O)O1 (stereo not shown) [compound 144] | 1.1 mg/kg | 2.2 mg/kg |  |
| CC(=O)OCC1CN(c2ccc(OCc3cccc([N+](=O)[O-])c3)cc2)C(=O)O1 (stereo not shown) [compound 36, Para (meta-nitrobenzyloxy) phenyl-3 acetoxy-methyl-5 oxazolidinone-2] | 1.5 mg/kg | 1.7 mg/kg |  |
| CCCCOc1ccc(N2CC(COC(=O)C(C)(C)C)OC2=O)cc1 (stereo not shown) [compound 12] | 6 mg/kg | 4.6 mg/kg |  |
| CCCCC(=O)OCC1CN(c2ccc(OCC3CCCC3)cc2)C(=O)O1 (stereo not shown) [compound 16] | 1.5 mg/kg | 1.7 mg/kg |  |

| Structure (SMILES) | ED50 [1] | ED50 [2, 3] | ED50 [2] |
| --- | --- | --- | --- |
| COCC1CN(c2ccc(OCc3cccc(F)c3)cc2)C(=O)O1 (stereo not shown) [compound 67] | 5.6 mg/kg | 4.4 mg/kg |  |
| COCC1CN(c2ccc(OCc3ccc([N+](=O)[O-])cc3)cc2)C(=O)O1 (stereo not shown) [compound 165] | 4.7 mg/kg | 6.8 mg/kg |  |
| N#CCCOc1ccc(N2CC(COC(=O)C3CCCCC3)OC2=O)cc1 (stereo not shown) [compound 8] | 7.2 mg/kg | 2.2 mg/kg |  |
| N#CCCOc1ccc(N2CC(COC(=O)c3ccccc3)OC2=O)cc1 (stereo not shown) [compound 10] | 5.8 mg/kg | 2.4 mg/kg |  |
| COCC1CN(c2ccc(OCc3ccc(F)c(Cl)c3)cc2)C(=O)O1 (stereo not shown) [compound 163] | 8 mg/kg | 1.15 mg/kg |  |
| NCC1CN(c2ccc(OCc3cccc(Cl)c3)cc2)C(=O)O1 (stereo not shown) [compound 82] | 12 mg/kg | 9.6 mg/kg |  |
| O=C(OCC1CN(c2ccc(OCC3CCCC3)cc2)C(=O)O1)C1CCCCC1 (stereo not shown) [compound 18] | 4.25 mg/kg | 4 mg/kg |  |
| OCC1CN(c2ccc(OCc3cccc(Cl)c3)cc2)C(=S)O1 (stereo not shown) [compound 93] | 6 mg/kg | 9 mg/kg |  |
| O=[N+]([O-])c1cc(Cl)cc(COc2ccc(N3CC(CO)OC3=S)cc2)c1 (stereo not shown) [compound 113] | 3.5 mg/kg | 3.2 mg/kg |  |
| CCCCC(=O)OCC1CN(c2ccc(OCc3cccc([N+](=O)[O-])c3)cc2)C(=O)O1 (stereo not shown) [compound 39] | 1.6 mg/kg | 1.75 mg/kg |  |
| CCCCC(=O)OCC1CN(c2ccc(OCCC#N)cc2)C(=O)O1 (stereo not shown) [compound 6] | 6 mg/kg | 2.4 mg/kg |  |
| CCCOCC1CN(c2ccc(OCCC#N)cc2)C(=O)O1 (stereo not shown) [compound 145] | 12 mg/kg | 8.5 mg/kg |  |
| CC(C)CCOc1ccc(N2CC(COC(=O)C3CCCCC3)OC2=O)cc1 (stereo not shown) [compound 129] | 12 mg/kg | 7.5 mg/kg |  |
| CCCCC(=O)OCC1CN(c2ccc(OCc3ccccc3)cc2)C(=O)O1 (stereo not shown) [compound 26] | 20 mg/kg | 12.5 mg/kg |  |
| COCOCC1CN(c2ccc(OCc3cccc([N+](=O)[O-])c3)cc2)C(=O)O1 (stereo not shown) [compound 73] | 0.8 mg/kg | 0.6 mg/kg |  |
| CCCOCC1CN(c2ccc(OCC3CCCC3)cc2)C(=O)O1 (stereo not shown) [compound 143] | 12 mg/kg | 12.5 mg/kg |  |
| CC(C)OCC1CN(c2ccc(OCc3ccccc3)cc2)C(=O)O1 (stereo not shown) [compound 58] | 8.8 mg/kg | 50 mg/kg |  |
| CC(=O)OCC1CN(c2ccc(OCC3CCCCC3)cc2)C(=S)O1 (stereo not shown) [compound 115] | 4.8 mg/kg | 3.8 mg/kg |  |
| O=C1OC(COC2CCCCC2)CN1c1ccc(OCc2cccc([N+](=O)[O-])c2)cc1 (stereo not shown) [compound 63] | 16.5 mg/kg | 9.4 mg/kg |  |
| CCCOCC1CN(c2ccc(OCc3cccc([N+](=O)[O-])c3)cc2)C(=O)O1 (stereo not shown) [compound 70] | 0.6 mg/kg | 0.8 mg/kg |  |
| COCC1CN(c2ccc(OCc3cccc(C#N)c3)cc2)C(=O)O1 (stereo not shown) [compound 65] | 0.75 mg/kg | 0.28 mg/kg |  |
| CC(C)OCC1CN(c2ccc(OCC3CCCC3)cc2)C(=O)O1 (stereo not shown) [compound 50] | 15 mg/kg | 17.5 mg/kg |  |
| OCC1CN(c2ccc(OCc3cccc(F)c3)cc2)C(=S)O1 (stereo not shown) [compound 177] | 15.5 mg/kg | 8 mg/kg |  |
| CCCCC(=O)OCC1CN(c2ccc(OCCC(C)C)cc2)C(=O)O1 (stereo not shown) [compound 128] | 4.8 mg/kg | 7.2 mg/kg |  |
| CCCOCC1CN(c2ccc(OCc3cccc(Cl)c3)cc2)C(=O)O1 (stereo not shown) [compound 153] | 4 mg/kg | 3.8 mg/kg |  |
| CC(C)(C)C(=O)OCC1CN(c2ccc(OCc3cccc([N+](=O)[O-])c3)cc2)C(=O)O1 (stereo not shown) [compound 40] | 1.5 mg/kg | 6.2 mg/kg |  |

From patent US4348393A, “N-Aryl oxazolidinones, oxazolidinethiones, pyrrolidinones, pyrrolidines and thiazolidinones” (Delalande S.A., priority 1978, dated 1982)
